This is an account of results in patent publication US11420935B2, “Bicyclic compounds” (Vivace Therapeutics, Inc., priority 2019, dated 2022).

Some results are limits rather than exact numbers.

What is called IC50 is the midpoint of a concentration-inhibition curve.

In the test the test system is 8×TBD luciferase reporter (YAP) in HEK293T cells. Description: YAP Reporter Assay (8×TBD firefly luciferase reporter). Format: cell-based. Conditions: Homo sapiens, HEK-293T; HEK293T cells stably transfected with 8×TBD luciferase reporter and pRLTK; 24-hr incubation; firefly luciferase activity; read-out: Firefly Luciferase IC50. On the procedure: HEK293T cells stably transfected with 8×TBD luciferase reporter and pRLTK in 384-well plates were treated with the test compounds, starting from 3 μM (final concentration in assay plate), 1:3 dilution, and 10 points in quadruplicates. Post 24-hr incubation with compounds at 37° C. and 5% CO2, cells were lysed and 8×TBD-driven firefly luciferase and control TK-driven renilla luciferase activities were measured using Promega Dual-Luciferase Reporter Assay System.
Reagents: The reagents used for this study are: DMEM: Invitrogen #11960077, Dual-Glo Luciferase Assay System: Promega-E2980, Puromycin Dihydrochloride: Invitrogen-A1113803, 384-well plate: PerkinElmer-6007480, L-GLUTAMINE: Invitrogen-25030164, Hygromycin B: Invitrogen-10687010, and Penicillin-Streptomycin: Merk-TMS-AB2-C
Media: The media used for this assay were: Culture Medium: DMEM+1 ug/mL puromycin+200 ug/mL hygromycin (with 10% FBS+1 mM L-glutamine); and Assay Medium: DMEM (with 10% FBS+1 mM L-glutamine+1×P/S).
Cell Plating: The appropriate media was warmed at 37° C. by water bath: Culture Medium, Assay Medium, 1*D-PBS, 0.05% trypsin-EDTA. The cells were trypsinized after removing all media, then washed with 1*sterile D-PBS and then with 2 ml 0.05% trypsin-EDTA. The cells were then incubated at RT for one minute. Then 10 ml/75 cm2 flask Assay Medium was added to each flask. Using a 10 ml pipette, the cells were then gently resuspended in the media, until the clumps completely disappeared. The cells were then transferred into 50 ml centrifuge tubes and were centrifuged at 800 rpm for 5 mins. The medium was removed and the cells were resuspended with Assay Medium. An aliquot of cells was used to count the cell density (cells/ml). The cell suspension was then diluted with Assay Medium to a concentration of 6×10^4 cells/ml. 50 ul cells suspension was then plated to 384-well plate (PerkinElmer-6007480), 3×10^3 cells/well and the cells were incubated in an incubator at 37° C., 5% CO2.
Compound Treatment: In the afternoon (incubation of the plate with 3-4 hrs), the test compounds were added by Echo, starting from 3 uM (final concentration in the assay plate), 1:3 dilution, 10 points, quadruplicates. The plate was placed at 37° C., 5% CO2 incubator for 24 hrs.
Detection: The Dual-Glo Luciferase Reagent was prepared by transferring the contents of one bottle of Dual-Glo Luciferase Buffer to one bottle of Dual-Glo Luciferase Substrate to create the Dual-Glo Luciferase Reagent. Mixing was performed by inversion until the substrate was thoroughly dissolved. After mixing, the reagent was aliquoted into 15 ml tubes. In the afternoon (24 hrs post compound treatment), the DMEM+medium in the 384 well plates were aspirated by Microplate Washer.
Measuring firefly luciferase activity: 20 ul Dual-Glo Luciferase Reagent was added to the 384-well plates. The plates were protected from light to prevent interference with the assay. The plates were shaken for 1 min followed centrifuging plates at 1000 rpm for 30 seconds. After waiting at least 10 minutes, the firefly luminescence was measured by Envision.
Measuring renilla luciferase activity: 20 ul Stop-Glo Reagent was added to the 384-well plates. The plates were shaken for 1 min and then centrifuged at 1000 rpm for 30 seconds. After waiting at least 10 minutes, the renilla luminescence was measured by Envision.
Compound IC50 and maximum inhibition on the firefly luciferase and renilla luciferase activities were reported separately.
A general note: In a reporter assay the amount or activity of a reporter protein is the signal.
In the case of `C[C@@H](NC(=O)c1ccc2c(Oc3ccc(C(F)(F)F)cc3)cccc2c1)c1c[nH]cn1` [Compound 48, (R)—N-(1-(1H-imidazol-4-yl)ethyl)-5-(4-(trifluoromethyl)phenoxy)-2-naphthamide], the half-maximal inhibitory concentration (IC50) is under 0.1 µM.

Regarding `C[C@H](NC(=O)c1ccc2c(Oc3ccc(C(F)(F)F)cc3)cccc2c1)c1c[nH]cn1` [Compound 49, (S)—N-(1-(1H-imidazol-4-yl)ethyl)-5-(4-(trifluoromethyl)phenoxy)-2-naphthamide], the IC50 is under 0.1 µM.

Take `C[C@H](NC(=O)c1ccc2c(Oc3ccc(C(F)(F)F)cc3)cccc2c1)C(N)=O` [Compound 50, (S)—N-(1-amino-1-oxopropan-2-yl)-5-(4-(trifluoromethyl)phenoxy)-2-naphthamide]: the IC50 is under 0.1 µM.

Take `C[C@@H](NC(=O)c1ccc2c(Oc3ccc(C(F)(F)F)cc3)cccc2c1)C(N)=O` [Compound 51, (R)—N-(1-amino-1-oxopropan-2-yl)-5-(4-(trifluoromethyl)phenoxy)-2-naphthamide]: the IC50 was under 0.1 µM.

Turning to `C[C@H](NC(=O)c1ccc2c(Oc3ccc(C(F)(F)F)cc3)cccc2c1)c1nn[nH]n1` [Compound 52, (S)—N-(1-(2H-tetrazol-5-yl)ethyl)-5-(4-(trifluoromethyl)phenoxy)-2-naphthamide], the concentration for half-maximal inhibition (IC50) fell in the range of 1 to 3 µM.

On to `O=C(NC1(c2ccccn2)CC1)c1ccc2c(Oc3ccc(C(F)(F)F)cc3)cccc2c1` [Compound 54, N-(1-(pyridin-2-yl)cyclopropyl)-5-(4-(trifluoromethyl)phenoxy)-2-naphthamide], for which the IC50 was under 0.1 µM.

As for `C[C@H](NC(=O)c1ccc2c(Oc3ccc(C(F)(F)F)cc3)cccc2c1)c1nnnn1C` [Compound 55, (S)—N-(1-(1-methyl-1H-tetrazol-5-yl)ethyl)-5-(4-(trifluoromethyl)phenoxy)-2-naphthamide], the concentration for half-maximal inhibition (IC50) lay within 0.1 to 1 µM.

Turning to `C[C@@H](NC(=O)c1ccc2c(Oc3ccc(C(F)(F)F)cc3)cccc2c1)c1nnnn1C` [Compound 56, (R)—N-(1-(1-methyl-1H-tetrazol-5-yl)ethyl)-5-(4-(trifluoromethyl)phenoxy)-2-naphthamide], the half-inhibitory concentration (IC50) lay within 0.1 to 1 µM.

Take `C[C@@H](NC(=O)c1ccc2c(Oc3ccc(C(F)(F)F)cc3)cccc2c1)c1nnn(C)n1` [Compound 57, (R)—N-(1-(2-methyl-2H-tetrazol-5-yl)ethyl)-5-(4-(trifluoromethyl)phenoxy)-2-naphthamide]: the half-inhibitory concentration (IC50) fell in the range of 0.1 to 1 µM.

With `C[C@H](NC(=O)c1ccc2c(Oc3ccc(C(F)(F)F)cc3)cccc2c1)c1nnn(C)n1` [Compound 58, (S)—N-(1-(2-methyl-2H-tetrazol-5-yl)ethyl)-5-(4-(trifluoromethyl)phenoxy)-2-naphthamide], the IC50 was under 0.1 µM.

For `C[C@@H](NC(=O)c1ccc2c(Oc3ccc(C(F)(F)F)cc3)cccc2c1)C1CCC1` [Compound 59, (R)—N-(1-cyclobutylethyl)-5-(4-(trifluoromethyl)phenoxy)-2-naphthamide], the 50% inhibitory concentration (IC50) was under 0.1 µM.

On to `C[C@H](NC(=O)c1ccc2c(Oc3ccc(C(F)(F)F)cc3)cccc2c1)C1CCC1` [Compound 60, (S)—N-(1-cyclobutylethyl)-5-(4-(trifluoromethyl)phenoxy)-2-naphthamide], for which the concentration for half-maximal inhibition (IC50) was under 0.1 µM.

`C#C[C@@H](C)NC(=O)c1ccc2c(Oc3ccc(C(F)(F)F)cc3)cccc2c1` [Compound 61, (R)—N-(but-3-yn-2-yl)-5-(4-(trifluoromethyl)phenoxy)-2-naphthamide]: the IC50 was under 0.1 µM.

Take `C#C[C@H](C)NC(=O)c1ccc2c(Oc3ccc(C(F)(F)F)cc3)cccc2c1` [Compound 62, (S)—N-(but-3-yn-2-yl)-5-(4-(trifluoromethyl)phenoxy)-2-naphthamide]: the IC50 was under 0.1 µM.

For `C[C@H](NC(=O)c1ccc2c(Oc3ccc(C(F)(F)F)cc3)cccc2c1)c1ncc[nH]1` [Compound 63, (S)—N-(1-(1H-imidazol-2-yl)ethyl)-5-(4-(trifluoromethyl)phenoxy)-2-naphthamide], the 50% inhibitory concentration (IC50) was in the range of 0.1 to 1 µM.

For `C[C@@H](NC(=O)c1ccc2c(Oc3ccc(C(F)(F)F)cc3)cccc2c1)c1ncc[nH]1` [Compound 64, (R)—N-(1-(1H-imidazol-2-yl)ethyl)-5-(4-(trifluoromethyl)phenoxy)-2-naphthamide], the half-inhibitory concentration (IC50) was under 0.1 µM.

`C[C@H](NC(=O)c1ccc2c(Oc3ccc(C(F)(F)F)cc3)cccc2c1)c1cccc(N)n1` [Compound 65, (S)—N-(1-(6-aminopyridin-2-yl)ethyl)-5-(4-(trifluoromethyl)phenoxy)-2-naphthamide]: the concentration for half-maximal inhibition (IC50) lay within 0.1 to 1 µM.

Turning to `C[C@@H](NC(=O)c1ccc2c(Oc3ccc(C(F)(F)F)cc3)cccc2c1)c1cccc(N)n1` [Compound 66, (R)—N-(1-(6-aminopyridin-2-yl)ethyl)-5-(4-(trifluoromethyl)phenoxy)-2-naphthamide], the IC50 is under 0.1 µM.

Turning to `CC(C)NC(=O)c1ccc2c(Oc3ccc(C(F)(F)F)cc3)ccnc2c1` [Compound 67, N-isopropyl-4-(4-(trifluoromethyl)phenoxy)quinoline-7-carboxamide], the half-inhibitory concentration (IC50) is 0.1 to 1 µM.

As for `C[C@@H](NC(=O)c1ccc2c(Oc3ccc(C(F)(F)F)cc3)cccc2c1)c1nccn1C` [Compound 68, (R)—N-(1-(1-methyl-1H-imidazol-2-yl)ethyl)-5-(4-(trifluoromethyl)phenoxy)-2-naphthamide], the half-inhibitory concentration (IC50) is 0.1 to 1 µM.

With `C[C@H](NC(=O)c1ccc2c(Oc3ccc(C(F)(F)F)cc3)cccc2c1)c1nccn1C` [Compound 69, (S)—N-(1-(1-methyl-1H-imidazol-2-yl)ethyl)-5-(4-(trifluoromethyl)phenoxy)-2-naphthamide], the IC50 was in the range of 0.1 to 1 µM.

On to `CC(C)NC(=O)c1ccc2c(Oc3ccc(C(F)(F)F)cc3)cccc2n1` [Compound 70, N-Isopropyl-5-(4-(trifluoromethyl)phenoxy)quinoline-2-carboxamide], for which the 50% inhibitory concentration (IC50) is under 0.1 µM.

Turning to `C[C@H](NC(=O)c1ccc2c(Oc3ccc(C(F)(F)F)cc3)cccc2c1)c1cc(N)ccn1` [Compound 71, (S)—N-(1-(4-aminopyridin-2-yl)ethyl)-5-(4-(trifluoromethyl)phenoxy)-2-naphthamide], the IC50 lay in the range of 0.1 to 1 µM.

On to `C[C@@H](NC(=O)c1ccc2c(Oc3ccc(C(F)(F)F)cc3)cccc2c1)c1cc(N)ccn1` [Compound 72, (R)—N-(1-(4-aminopyridin-2-yl)ethyl)-5-(4-(trifluoromethyl)phenoxy)-2-naphthamide], for which the half-maximal inhibitory concentration (IC50) was under 0.1 µM.

As for `C[C@H](NC(=O)c1ccc2c(Oc3ccc(C(F)(F)F)cc3)cccc2c1)c1cc(N(C)C)ccn1` [Compound 73, (S)—N-(1-(4-(dimethylamino)pyridin-2-yl)ethyl)-5-(4-(trifluoromethyl)phenoxy)-2-naphthamide], the IC50 lay within 0.1 to 1 µM.

Turning to `C[C@@H](NC(=O)c1ccc2c(Oc3ccc(C(F)(F)F)cc3)cccc2c1)c1cc(N(C)C)ccn1` [Compound 74, (R)—N-(1-(4-(dimethylamino)pyridin-2-yl)ethyl)-5-(4-(trifluoromethyl)phenoxy)-2-naphthamide], the half-inhibitory concentration (IC50) lay within 1 to 3 µM.

On to `CC(NC(=O)c1ccc2c(Oc3ccc(C(F)(F)F)cc3)cccc2c1)c1cc(Br)ccn1` (stereo not shown) [Compound 75, N-(1-(4-bromopyridin-2-yl)ethyl)-5-(4-(trifluoromethyl)phenoxy)-2-naphthamide], for which the IC50 is under 0.1 µM.

As to `C[C@H](NC(=O)c1ccc2c(Oc3ccc(C(F)(F)F)cc3)cccc2c1)c1cccc(N(C)C)n1` [Compound 76, (S)—N-(1-(6-(dimethylamino)pyridin-2-yl)ethyl)-5-(4-(trifluoromethyl)phenoxy)-2-naphthamide], the IC50 fell in the range of 0.1 to 1 µM.
